Remaining activity data for 1 molecule are collected here from PMC5097156, “Potent and selective chemical probe of hypoxic signalling downstream of HIF-α hydroxylation via VHL inhibition” (Nature Communications, 2016).

The structures appear in SMILES notation.

Targets include BTK (Homo sapiens, UniProt Q06187); PAK4 (Homo sapiens, UniProt O96013); HIPK2 (Homo sapiens, UniProt Q9H2X6); SRPK1 (Homo sapiens, UniProt Q96SB4); PIM1 (Homo sapiens, UniProt P11309); SGK1 (Homo sapiens, UniProt O00141).
Common to all, as to assay: biochemical
Holding throughout (set-up): Dundee MRC-PPU Express kinase screen, remaining kinase activity
What all share (details): read-out: Mean % of remaining kinase activity (±sd)

In a further experiment the target is T1, MLK3 (Homo sapiens, UniProt Q16584).
T1 construct: gene MAP3K11

The next experiment has as its target T2, p38a MAPK (Homo sapiens, UniProt Q16539).
T2 construct: gene MAPK14

Another experiment concerns the target T3, CK1δ (Homo sapiens, UniProt P48730).
T3 construct: gene CSNK1D

For another experiment, the target named is T4, PKCa (Homo sapiens, UniProt P17252).
T4 construct: gene PRKCA

For a further experiment, the target named is T5, CHK2 (Homo sapiens, UniProt O96017).
T5 construct: gene CHEK2

A further experiment concerns the target T6, LKB1 (Homo sapiens, UniProt Q15831).
T6 construct: gene STK11

The target of a further experiment is T7, HER4 (Homo sapiens, UniProt Q15303).
T7 construct: gene ERBB4

The target in the next experiment is T8, TrkA (Homo sapiens, UniProt P04629).
T8 construct: gene NTRK1

Sequence of PIM1 (P11309 whole entry): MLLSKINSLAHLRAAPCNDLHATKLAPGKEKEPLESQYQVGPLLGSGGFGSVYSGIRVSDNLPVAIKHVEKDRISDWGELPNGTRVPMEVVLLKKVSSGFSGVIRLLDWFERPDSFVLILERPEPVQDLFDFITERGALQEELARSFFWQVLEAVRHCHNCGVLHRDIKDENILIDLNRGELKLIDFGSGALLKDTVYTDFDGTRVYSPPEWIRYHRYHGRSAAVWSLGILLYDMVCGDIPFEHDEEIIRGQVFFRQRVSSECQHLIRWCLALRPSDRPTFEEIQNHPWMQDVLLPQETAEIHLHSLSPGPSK
T3 sequence (P48730 whole entry): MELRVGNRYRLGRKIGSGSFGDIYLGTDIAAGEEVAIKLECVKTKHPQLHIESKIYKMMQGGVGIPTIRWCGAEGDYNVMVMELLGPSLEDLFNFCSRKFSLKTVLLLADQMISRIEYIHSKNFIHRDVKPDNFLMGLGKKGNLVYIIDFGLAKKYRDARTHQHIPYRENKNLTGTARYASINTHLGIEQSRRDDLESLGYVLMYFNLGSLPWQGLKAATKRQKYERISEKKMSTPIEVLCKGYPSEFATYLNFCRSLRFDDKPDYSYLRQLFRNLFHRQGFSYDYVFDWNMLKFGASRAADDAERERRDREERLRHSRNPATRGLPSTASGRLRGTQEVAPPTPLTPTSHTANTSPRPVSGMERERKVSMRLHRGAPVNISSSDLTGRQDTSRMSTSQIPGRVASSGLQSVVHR
T7 sequence (Q15303 whole entry): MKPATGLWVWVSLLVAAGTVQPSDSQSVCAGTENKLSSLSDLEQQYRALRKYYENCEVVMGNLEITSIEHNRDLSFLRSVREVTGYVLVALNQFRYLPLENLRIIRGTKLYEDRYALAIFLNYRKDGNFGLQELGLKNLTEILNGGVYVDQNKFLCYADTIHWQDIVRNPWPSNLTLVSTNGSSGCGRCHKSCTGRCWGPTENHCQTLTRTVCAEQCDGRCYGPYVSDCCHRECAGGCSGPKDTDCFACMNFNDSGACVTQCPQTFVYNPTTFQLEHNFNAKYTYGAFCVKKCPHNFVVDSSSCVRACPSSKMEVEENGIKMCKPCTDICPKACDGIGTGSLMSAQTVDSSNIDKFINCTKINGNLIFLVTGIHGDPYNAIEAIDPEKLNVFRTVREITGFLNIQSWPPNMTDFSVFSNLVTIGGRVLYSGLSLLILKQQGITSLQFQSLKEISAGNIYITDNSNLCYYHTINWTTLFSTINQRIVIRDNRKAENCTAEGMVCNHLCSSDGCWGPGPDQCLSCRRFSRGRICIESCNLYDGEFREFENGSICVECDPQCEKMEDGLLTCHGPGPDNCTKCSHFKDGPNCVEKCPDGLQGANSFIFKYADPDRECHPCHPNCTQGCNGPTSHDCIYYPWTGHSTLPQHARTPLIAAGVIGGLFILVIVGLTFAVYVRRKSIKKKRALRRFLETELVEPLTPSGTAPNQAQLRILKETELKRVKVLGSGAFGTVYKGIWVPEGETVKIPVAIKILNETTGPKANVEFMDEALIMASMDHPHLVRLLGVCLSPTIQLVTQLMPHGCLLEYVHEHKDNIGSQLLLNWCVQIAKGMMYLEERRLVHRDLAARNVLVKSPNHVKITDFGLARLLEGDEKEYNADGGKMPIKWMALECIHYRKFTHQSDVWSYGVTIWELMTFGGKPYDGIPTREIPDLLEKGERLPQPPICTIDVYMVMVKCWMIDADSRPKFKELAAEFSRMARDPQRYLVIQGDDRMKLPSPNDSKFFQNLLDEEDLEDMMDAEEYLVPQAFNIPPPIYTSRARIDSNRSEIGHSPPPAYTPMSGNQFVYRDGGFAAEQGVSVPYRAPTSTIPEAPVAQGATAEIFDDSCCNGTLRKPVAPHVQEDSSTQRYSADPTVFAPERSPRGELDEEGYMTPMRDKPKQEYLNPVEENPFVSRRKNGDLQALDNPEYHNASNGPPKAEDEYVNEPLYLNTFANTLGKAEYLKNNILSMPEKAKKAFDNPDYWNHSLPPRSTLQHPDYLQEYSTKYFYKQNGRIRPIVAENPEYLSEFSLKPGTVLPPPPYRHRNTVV
Sequence of PAK4 (O96013 whole entry): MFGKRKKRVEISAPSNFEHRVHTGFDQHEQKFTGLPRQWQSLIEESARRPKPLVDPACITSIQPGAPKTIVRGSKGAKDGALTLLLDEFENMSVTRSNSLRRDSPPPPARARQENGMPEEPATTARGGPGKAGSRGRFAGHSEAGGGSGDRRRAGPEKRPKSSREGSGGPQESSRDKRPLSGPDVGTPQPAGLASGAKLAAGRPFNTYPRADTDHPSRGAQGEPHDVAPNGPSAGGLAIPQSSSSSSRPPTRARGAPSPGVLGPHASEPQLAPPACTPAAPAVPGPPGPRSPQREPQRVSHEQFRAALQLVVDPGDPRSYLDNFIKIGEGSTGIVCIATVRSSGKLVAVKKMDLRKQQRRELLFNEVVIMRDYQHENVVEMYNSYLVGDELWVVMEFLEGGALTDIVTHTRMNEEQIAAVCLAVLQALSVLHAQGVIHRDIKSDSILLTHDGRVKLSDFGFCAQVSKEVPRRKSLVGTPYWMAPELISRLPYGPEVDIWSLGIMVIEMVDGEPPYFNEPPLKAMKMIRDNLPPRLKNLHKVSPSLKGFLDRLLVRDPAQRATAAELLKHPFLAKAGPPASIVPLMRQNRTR
Sequence of BTK (Q06187 whole entry): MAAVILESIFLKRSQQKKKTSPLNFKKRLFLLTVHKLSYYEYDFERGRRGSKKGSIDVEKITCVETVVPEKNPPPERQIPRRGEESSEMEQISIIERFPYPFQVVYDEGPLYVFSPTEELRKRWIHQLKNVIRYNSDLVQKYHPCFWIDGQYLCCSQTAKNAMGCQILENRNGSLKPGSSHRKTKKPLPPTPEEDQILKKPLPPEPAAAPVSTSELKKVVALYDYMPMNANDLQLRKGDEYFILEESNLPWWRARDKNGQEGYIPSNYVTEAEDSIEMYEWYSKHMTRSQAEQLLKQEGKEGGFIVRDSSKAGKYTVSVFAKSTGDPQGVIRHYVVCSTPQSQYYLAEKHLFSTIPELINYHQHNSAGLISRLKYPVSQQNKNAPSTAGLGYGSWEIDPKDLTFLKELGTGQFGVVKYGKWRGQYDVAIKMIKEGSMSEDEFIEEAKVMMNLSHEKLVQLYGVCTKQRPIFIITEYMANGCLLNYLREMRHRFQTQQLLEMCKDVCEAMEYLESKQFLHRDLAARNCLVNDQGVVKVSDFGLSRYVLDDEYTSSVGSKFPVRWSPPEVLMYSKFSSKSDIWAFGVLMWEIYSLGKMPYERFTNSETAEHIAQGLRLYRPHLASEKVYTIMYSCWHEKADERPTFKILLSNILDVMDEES
Sequence of HIPK2 (Q9H2X6 whole entry): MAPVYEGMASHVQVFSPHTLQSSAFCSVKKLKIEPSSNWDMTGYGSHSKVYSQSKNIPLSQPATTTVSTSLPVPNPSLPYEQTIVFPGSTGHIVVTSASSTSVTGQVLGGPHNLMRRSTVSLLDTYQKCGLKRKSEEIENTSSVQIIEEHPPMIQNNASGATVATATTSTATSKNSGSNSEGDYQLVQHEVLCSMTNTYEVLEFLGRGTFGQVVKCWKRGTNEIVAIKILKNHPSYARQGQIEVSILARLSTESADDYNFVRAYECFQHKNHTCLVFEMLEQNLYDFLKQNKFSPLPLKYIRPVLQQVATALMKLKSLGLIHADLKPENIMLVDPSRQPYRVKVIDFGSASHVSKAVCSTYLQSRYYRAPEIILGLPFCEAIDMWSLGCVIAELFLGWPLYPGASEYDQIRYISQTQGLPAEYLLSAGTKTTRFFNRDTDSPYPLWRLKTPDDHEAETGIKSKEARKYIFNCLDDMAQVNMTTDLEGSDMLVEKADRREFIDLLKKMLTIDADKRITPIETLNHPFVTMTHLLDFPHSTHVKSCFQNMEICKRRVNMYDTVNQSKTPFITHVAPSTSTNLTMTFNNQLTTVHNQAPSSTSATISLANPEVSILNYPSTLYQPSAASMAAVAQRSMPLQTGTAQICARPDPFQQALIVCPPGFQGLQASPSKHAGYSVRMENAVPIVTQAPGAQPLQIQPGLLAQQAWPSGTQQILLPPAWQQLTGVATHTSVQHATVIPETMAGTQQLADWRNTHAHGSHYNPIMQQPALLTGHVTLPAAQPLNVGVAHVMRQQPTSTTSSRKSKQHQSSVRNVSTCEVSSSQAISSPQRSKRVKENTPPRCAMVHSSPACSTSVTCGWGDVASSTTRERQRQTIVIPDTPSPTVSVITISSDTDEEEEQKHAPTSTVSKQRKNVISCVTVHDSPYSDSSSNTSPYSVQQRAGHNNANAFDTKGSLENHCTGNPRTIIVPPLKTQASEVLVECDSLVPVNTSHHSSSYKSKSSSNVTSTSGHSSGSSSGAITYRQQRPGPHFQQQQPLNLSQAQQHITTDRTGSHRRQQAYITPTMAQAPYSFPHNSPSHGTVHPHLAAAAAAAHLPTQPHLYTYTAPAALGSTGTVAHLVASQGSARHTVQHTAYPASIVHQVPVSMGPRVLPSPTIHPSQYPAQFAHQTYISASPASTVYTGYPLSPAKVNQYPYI
T6 sequence (Q15831 whole entry): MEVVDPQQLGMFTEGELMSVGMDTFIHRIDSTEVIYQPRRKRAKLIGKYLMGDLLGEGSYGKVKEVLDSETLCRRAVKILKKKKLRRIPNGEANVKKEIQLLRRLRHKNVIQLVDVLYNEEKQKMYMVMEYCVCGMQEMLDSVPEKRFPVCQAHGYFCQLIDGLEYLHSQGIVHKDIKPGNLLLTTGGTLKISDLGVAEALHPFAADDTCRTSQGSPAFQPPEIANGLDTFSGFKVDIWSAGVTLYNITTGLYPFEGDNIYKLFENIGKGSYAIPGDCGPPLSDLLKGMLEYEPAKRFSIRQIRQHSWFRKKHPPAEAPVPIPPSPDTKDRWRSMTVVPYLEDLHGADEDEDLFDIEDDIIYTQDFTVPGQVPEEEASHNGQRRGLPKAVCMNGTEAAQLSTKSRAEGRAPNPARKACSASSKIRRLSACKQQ

Consider `Cc1ncsc1-c1ccc(CNC(=O)[C@@H]2C[C@@H](O)CN2C(=O)[C@@H](NC(=O)C2(C#N)CC2)C(C)(C)C)cc1` [VH298], for which the remaining activity – broadly, the signal under treatment as a percentage of the control signal – at 50 µM worked out at 95% on MLK3; 102% on BTK; 108% on p38a MAPK; 99% at CK1δ; 97% on PAK4; 100% at HIPK2. The remaining activity at 50 µM on PKCa worked out at 99%; on CHK2 it was 93%; on LKB1, 105%; at HER4, 96%; on SRPK1, 101%; at PIM1, 92%. In addition, the remaining activity at 50 µM worked out at 100% on TrkA and 83% on SGK1.
